21 molecules from the Deep4Chem optical property database can be followed below.

This data set can be described thus: solvent given as SMILES.

Turning to `CCN(CC)c1ccc2c(-c3ccc(S(=O)(=O)O)cc3S(=O)(=O)[O-])c3ccc(=[N+](CC)CC)cc-3oc2c1`, the fluorescence lifetime by setting is: (in CC#N) 2.47 ns; (in CCO) 3 ns; (in CN(C)C=O) 2.91 ns; (in O) 1.78 ns.

For the setting “in CC#N”, `Cc1cc2nc3[nH]c(=O)n(C)c(=O)c3nc2cc1C` yielded a fluorescence lifetime of 0.64 ns.

As to `O=S(=O)([O-])CCCCN1C=C/C(=C/C=C/C=C/c2cc[n+](CCCCS(=O)(=O)[O-])c3ccccc23)c2ccccc21`, under “in CS(C)=O”, the fluorescence lifetime was 0.36 ns.

As for `Cc1ccc(-c2cc(-c3ccccc3)c(C#N)c(=S)[nH]2)cc1`, the fluorescence lifetime is, setting by setting: (in CC#N) 4.92 ns; (in CCO) 4.79 ns; (in ClC(Cl)(Cl)Cl) 1.22 ns.

For `Oc1ccc(Br)cc1-c1nc2c(c3c1-c1ccccc1CC3)-c1ccccc1CC2`, the fluorescence lifetime (in ClCCl) is 1.94 ns.

In turn, `CN(C)c1ccc(C(=Cc2ccc(C#N)cc2)c2ccc(N(C)C)cc2)cc1` returned a fluorescence lifetime (in C1CCOC1) of 7.1 ns.

As to `COc1ccc2c3cccc4c(OC)ccc(c5cccc1c52)c43`, the fluorescence lifetime reads like this: (in C1CCOC1) 3.95 ns; (in Cc1ccccc1) 3.6 ns; (in ClC(Cl)(Cl)Cl) 3.65 ns; (in ClC(Cl)Cl) 3.89 ns; (in ClCCl) 4.33 ns; (in c1ccncc1) 4.02 ns.

In turn, `CCCCCCN1C(=O)c2cccc3c(-c4cc5ccccc5s4)ccc(c23)C1=O` displayed a fluorescence lifetime (in ClC(Cl)Cl) of 0.86 ns.

`COc1ccc2cc(/C=C/C3=[O+][B-](F)(F)OC(/C=C/c4ccc5cc(OC)ccc5c4)=C3c3ccccc3)ccc2c1`: the fluorescence lifetime (in ClCCl) was 1.86 ns.

The molecule `CCN(CC)c1ccc2cc(/C=C3\CCCc4c3[o+]c3cc(N(CC)CC)ccc3c4-c3ccccc3C(=O)O)c(=O)oc2c1` showed a fluorescence lifetime (in ClCCl) of 0.36 ns.

With `CCN(CC)c1cc2oc(=O)cc(C)c2cc1C`, for the setting “in CCO”, the fluorescence lifetime stood at 2.56 ns.

On to `CCCCc1ccc2ccc3c(CCCC)ccc4ccc1c2c43`, for which the fluorescence lifetime by setting is: (in CCCCCC) 57.8 ns; (in CO) 70.6 ns; (in ClCCl) 42 ns.

As for `COc1ccc2c(c1)c(=O)c1ccccc1n2CCCCCC(=O)O`, for the setting “in O”, the fluorescence lifetime came to 17 ns.

`Cc1ccc(C2=Cc3ccc4ccccc4[n+]3[B-](F)(F)O2)cc1` displayed a fluorescence lifetime (in ClC(Cl)Cl) of 1.79 ns.

Molecule `c1ccc(-c2nc(-c3ccccc3)nc(-c3ccc(-n4c5ccccc5c5c6c(ccc54)C4(c5ccccc5-c5ccccc54)c4ccccc4-6)cc3)n2)cc1` had a fluorescence lifetime (in O=P(c1ccccc1)(c1ccccc1)c1ccccc1Oc1ccccc1P(=O)(c1ccccc1)c1ccccc1) of 11.1 ns.

Consider `CN(C)c1cccc2c1-c1ccccc1C2=O`, for which the fluorescence lifetime came to 8 ns (in C1CCCCC1), 4.2 ns (in CC#N) and 10 ns (in c1ccccc1).

`CCCCCCN1C(=O)c2cccc3cc(/N=C\c4cn(C)c5ccccc45)cc(c23)C1=O` had a fluorescence lifetime (in ClC(Cl)Cl) of 11.4 ns.

For `CC1=N/C(=C\c2cccc(N(C)C)c2)C(=O)N1C`, the fluorescence lifetime came to 15.3 ns (in C1CCOC1), 8.6 ns (in CC#N) and 22.5 ns (in CCCCCC).

With `COc1ccc(C2=C3C(C)=CC(C)=[N+]3[B-](F)(F)n3c(/C=C/c4ccc(N(C)C)cc4)cc(C)c32)cc1`, the fluorescence lifetime is 3.5 ns (in C1CCCCC1); 3 ns (in C1CCOC1); 3.43 ns (in C1COCCO1); 1.2 ns (in CC#N); 2.23 ns (in CC(C)=O); 1.84 ns (in CCC#N). Further, the fluorescence lifetime was found to be 2.26 ns (in CCCC#N); 2.45 ns (in CCCCO); 3.31 ns (in CCOC(C)=O); 3.74 ns (in CCOCC); 0.85 ns (in CO); 3.25 ns (in Cc1ccccc1). In addition, the fluorescence lifetime (in ClC(Cl)Cl) turned out to be 3.47 ns.

As to `CC(C)(C)c1ccc(C2=c3sc(-c4ccc(C(C)(C)C)cc4)cc3=[N+]3C2=Nc2c(-c4ccc(C(C)(C)C)cc4)c4sc(-c5ccc(C(C)(C)C)cc5)cc4n2[B-]3(F)F)cc1`, under “in ClC(Cl)Cl”, the fluorescence lifetime came to 1.69 ns.

For the setting “in ClCCl”, `F[B-]1(F)OC(c2ccccc2)=Cc2cc3[n+](c[n+]21)[B-](F)(F)OC(c1ccccc1)=C3` yielded a fluorescence lifetime of 1.4 ns.
